# Reference: publication PMC3688631 (ACS medicinal chemistry letters, 2013)
# Assays:
# PI3Kβ D862Q = PI3Kβ D862Q (Homo sapiens, UniProt P42338, D862Q); conditions: cited from earlier work
# [1] = system: Akt phosphorylation in MDA-MB-468; assay: Cellular inhibition of Akt phosphorylation; format: cell-based; conditions: Homo sapiens, MDA-MB-468, read-out: inhibition of Akt phosphorylation IC50
# 96 kinases = assay: KinomeScan screen versus another 96 kinases; format: binding
# Chain of PI3Kβ D862Q (P42338 whole entry D862Q): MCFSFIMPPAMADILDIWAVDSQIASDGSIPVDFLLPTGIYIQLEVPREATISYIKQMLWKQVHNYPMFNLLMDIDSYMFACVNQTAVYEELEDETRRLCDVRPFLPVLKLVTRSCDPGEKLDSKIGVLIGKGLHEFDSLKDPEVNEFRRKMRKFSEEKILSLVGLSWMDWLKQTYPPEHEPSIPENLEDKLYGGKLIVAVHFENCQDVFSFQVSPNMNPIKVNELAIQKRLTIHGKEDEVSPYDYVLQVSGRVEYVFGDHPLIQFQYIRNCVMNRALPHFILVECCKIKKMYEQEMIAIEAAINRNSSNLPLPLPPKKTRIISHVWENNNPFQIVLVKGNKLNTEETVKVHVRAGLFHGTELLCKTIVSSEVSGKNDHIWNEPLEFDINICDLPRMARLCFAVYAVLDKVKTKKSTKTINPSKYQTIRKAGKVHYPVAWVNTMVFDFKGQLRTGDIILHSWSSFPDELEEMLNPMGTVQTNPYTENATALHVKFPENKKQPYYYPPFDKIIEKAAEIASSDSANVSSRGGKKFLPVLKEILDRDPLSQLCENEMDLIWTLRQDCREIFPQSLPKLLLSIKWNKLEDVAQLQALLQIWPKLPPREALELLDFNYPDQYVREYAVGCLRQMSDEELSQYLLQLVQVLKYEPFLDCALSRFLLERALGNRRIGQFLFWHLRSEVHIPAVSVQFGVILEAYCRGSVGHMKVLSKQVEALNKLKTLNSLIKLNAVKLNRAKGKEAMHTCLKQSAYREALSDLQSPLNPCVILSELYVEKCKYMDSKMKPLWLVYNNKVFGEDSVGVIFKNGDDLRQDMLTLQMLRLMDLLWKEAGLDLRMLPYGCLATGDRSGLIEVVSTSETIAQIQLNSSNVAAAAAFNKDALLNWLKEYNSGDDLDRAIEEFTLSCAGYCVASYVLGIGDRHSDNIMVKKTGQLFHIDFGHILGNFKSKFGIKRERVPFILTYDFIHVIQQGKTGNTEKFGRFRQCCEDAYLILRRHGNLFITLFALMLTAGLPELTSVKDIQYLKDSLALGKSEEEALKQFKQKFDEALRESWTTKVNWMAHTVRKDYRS
# Chain of PI3Kβ D862Q (P27986 whole entry partner): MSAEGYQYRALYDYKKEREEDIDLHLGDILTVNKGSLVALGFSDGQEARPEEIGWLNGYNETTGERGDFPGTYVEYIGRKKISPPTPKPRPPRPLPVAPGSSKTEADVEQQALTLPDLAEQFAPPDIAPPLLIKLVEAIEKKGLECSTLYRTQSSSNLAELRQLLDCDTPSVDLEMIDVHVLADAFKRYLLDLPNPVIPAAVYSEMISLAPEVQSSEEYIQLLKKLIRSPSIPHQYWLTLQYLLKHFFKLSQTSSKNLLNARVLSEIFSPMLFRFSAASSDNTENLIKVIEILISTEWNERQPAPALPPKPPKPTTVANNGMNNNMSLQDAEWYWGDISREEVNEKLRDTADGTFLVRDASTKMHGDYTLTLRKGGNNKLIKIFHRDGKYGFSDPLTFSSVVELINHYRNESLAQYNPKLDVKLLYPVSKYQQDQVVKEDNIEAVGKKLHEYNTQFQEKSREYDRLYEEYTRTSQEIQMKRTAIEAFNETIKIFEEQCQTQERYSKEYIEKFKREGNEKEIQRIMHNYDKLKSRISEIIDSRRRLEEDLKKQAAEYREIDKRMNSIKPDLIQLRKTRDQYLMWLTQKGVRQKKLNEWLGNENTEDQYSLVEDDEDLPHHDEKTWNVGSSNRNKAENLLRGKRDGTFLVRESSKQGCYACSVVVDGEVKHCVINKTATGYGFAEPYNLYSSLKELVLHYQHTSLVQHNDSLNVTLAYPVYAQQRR
SMILES,effect of mutation D862Q in PI3Kβ on inhibition (PI3Kβ D862Q),IC50 [1],KinomeScan binding affinity versus another 96 kinases (96 kinases)
Cc1cc(C(C)Nc2ccccc2)c2nc(N3CCOCC3)cc(=O)n2c1 (stereo not drawn) [TGX221],unaffected,–,–
N[C@@H](Cc1ccccc1)C(=O)N1CCN(c2nc(N3CCOCC3)nc(-n3c(C(F)F)nc4ccccc43)n2)CC1 [Compound 21],–,< 10 nM,only the class II PI3K PI3KC2β showed binding affinity comparable to that seen for PI3Kβ
